Data from paper PMC11408249, “Non-invasive in vivo imaging of changes in Collagen III turnover in myocardial fibrosis” (npj Imaging, 2024).
Marks after values point to notes of the source that are not given here.

What was measured:
[1] = molecular target: T1, COL3 (Mus musculus, UniProt P08121); assay: Molecular CMR of COL3 in a murine model of myocardial infarction; format: in vivo, mice; conditions: control agents, i.v. 0.2 mmol/kg, 30 minutes post-injection, n = 2–3 per group
T1 construct: from tissue; host or cells: infarcted left-ventricular myocardium of female CD1 mice, in vivo
T1 sequence (P08121 155-1219 limits assumed): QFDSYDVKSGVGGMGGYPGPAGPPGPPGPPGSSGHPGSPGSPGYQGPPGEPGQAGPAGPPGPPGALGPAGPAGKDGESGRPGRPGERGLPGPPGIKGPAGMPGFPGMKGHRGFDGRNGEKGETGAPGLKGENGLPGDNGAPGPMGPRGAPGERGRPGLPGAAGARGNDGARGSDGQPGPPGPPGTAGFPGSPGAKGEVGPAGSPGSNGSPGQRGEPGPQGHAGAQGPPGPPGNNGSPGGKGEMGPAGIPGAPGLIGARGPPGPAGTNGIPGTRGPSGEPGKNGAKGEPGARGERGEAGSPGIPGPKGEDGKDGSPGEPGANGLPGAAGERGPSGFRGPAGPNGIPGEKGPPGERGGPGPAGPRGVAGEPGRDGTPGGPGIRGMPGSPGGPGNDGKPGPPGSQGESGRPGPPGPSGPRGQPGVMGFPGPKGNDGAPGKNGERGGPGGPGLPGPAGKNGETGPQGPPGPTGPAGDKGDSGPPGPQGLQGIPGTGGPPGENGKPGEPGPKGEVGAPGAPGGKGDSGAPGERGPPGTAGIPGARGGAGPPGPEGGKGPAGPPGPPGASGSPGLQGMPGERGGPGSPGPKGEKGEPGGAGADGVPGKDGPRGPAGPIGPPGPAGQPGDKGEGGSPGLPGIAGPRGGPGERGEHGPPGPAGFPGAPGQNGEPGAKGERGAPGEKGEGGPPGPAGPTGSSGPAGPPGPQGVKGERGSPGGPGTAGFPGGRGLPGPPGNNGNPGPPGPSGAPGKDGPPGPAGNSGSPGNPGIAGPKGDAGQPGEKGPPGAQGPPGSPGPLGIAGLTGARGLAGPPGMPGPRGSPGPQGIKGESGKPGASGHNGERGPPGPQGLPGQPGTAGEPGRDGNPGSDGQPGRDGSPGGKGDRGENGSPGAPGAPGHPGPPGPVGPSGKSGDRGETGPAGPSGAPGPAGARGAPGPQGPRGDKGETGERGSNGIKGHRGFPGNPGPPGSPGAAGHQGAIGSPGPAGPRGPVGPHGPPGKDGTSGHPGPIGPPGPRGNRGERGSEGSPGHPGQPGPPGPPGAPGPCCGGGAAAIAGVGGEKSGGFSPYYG

[2] = 20 MHz, 37 °C, cited from earlier work
Procedure: Table 1 Relaxivities of monomeric and tetrameric probes bearing CBP1 and CBP2 peptide moieties, in PBS and 0.6 mM human serum albumin (HAS) at 20 MHz and 37 °C | column: r1 mM (mM^−1 s^−1) / PBS; r1 mM (mM^−1 s^−1) / HSA 0.6 mM || To further characterise the molecular characteristics of these probes, the ^1H nuclear magnetic relaxation dispersion profiles (^1H-NMRD) of Gd-DOTAMA-CBP1, Gd-DOTAMA-CBP2 and [Gd-DOTAMA]4-CBP1 were acquired in phosphate buffer saline (PBS) and in 0.6 mM human serum albumin (HSA), at 25 and 37 °C (Supplementary Fig. 3a–c). The profiles obtained were characteristic of small-molecular weight (MW) complexes, even when in the presence of HSA. Table 1 summarises the relaxivity values at 20 MHz and 37 °C, for all probes and for Gadovist[45] a nonpeptide-based (non-targeted) clinically approved contr ...

[3] = molecular target: T2, COL3 (Homo sapiens, UniProt P02461); conditions: cited from earlier work
T2 sequence (P02461 154-1221 limits assumed): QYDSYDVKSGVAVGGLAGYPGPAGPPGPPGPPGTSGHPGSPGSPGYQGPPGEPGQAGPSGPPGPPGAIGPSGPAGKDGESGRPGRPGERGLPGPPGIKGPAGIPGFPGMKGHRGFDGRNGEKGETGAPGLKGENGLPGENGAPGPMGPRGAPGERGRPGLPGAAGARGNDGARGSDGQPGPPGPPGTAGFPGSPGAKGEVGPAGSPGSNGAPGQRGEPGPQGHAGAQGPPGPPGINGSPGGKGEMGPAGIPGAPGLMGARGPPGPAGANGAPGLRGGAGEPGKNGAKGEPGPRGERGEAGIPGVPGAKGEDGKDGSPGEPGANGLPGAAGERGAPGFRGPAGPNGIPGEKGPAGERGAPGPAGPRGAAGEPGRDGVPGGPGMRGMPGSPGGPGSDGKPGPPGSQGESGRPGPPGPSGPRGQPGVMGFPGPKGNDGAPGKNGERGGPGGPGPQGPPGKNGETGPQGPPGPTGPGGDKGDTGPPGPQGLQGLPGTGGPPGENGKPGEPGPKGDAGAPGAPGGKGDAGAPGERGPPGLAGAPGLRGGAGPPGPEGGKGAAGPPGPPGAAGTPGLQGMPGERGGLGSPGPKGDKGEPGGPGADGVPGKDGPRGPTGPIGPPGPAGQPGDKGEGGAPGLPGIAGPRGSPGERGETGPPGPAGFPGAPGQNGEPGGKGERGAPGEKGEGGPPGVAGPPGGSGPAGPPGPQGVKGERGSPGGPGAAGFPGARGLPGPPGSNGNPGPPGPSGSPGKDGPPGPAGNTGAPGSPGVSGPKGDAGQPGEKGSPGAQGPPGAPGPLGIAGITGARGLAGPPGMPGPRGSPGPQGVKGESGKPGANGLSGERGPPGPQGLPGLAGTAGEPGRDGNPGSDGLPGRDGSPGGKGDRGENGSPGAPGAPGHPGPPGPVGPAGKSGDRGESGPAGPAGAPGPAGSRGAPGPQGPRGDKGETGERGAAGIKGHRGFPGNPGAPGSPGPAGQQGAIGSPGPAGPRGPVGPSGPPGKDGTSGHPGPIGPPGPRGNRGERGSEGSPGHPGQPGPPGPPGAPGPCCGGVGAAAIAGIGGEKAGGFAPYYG
Text: (§1) The two peptides, DARKSEVQK (Collagen Binding Probe 1, CBP1) and TEFPLRMRDWLKN (CBP2), were identified from reported protein-protein interaction studies between collagen and other proteins[41],[43]. […] The TEFPLRMRDWLKN peptide is part of the secreted protein acidic and rich cysteine (SPARC) that binds to fibrillary collagens. The binding interaction between SPARC and collagens regulates collagen fibrillogenesis ...

[4] = tested on: COL3-induced platelet aggregation; conditions: cited from earlier work
Text: as §1

[5] = molecular target: T3, COL3-rich fibres (Mus musculus, UniProt P08121); assay: Tissue co-localisation of fluorescent probe with COL3 fibres; design: species or system mice; conditions: murine model of vascular remodelling
T3 construct: Signal enhancement seen on the MRI coincided with COL3 fibres detected by histology; from tissue; host or cells: remodelled abdominal aortic wall of male ApoE-/- mice, in vivo and in excised sections
T3 sequence (P08121 155-1219 limits assumed): T1 sequence (P08121 155-1219 limits assumed)
Text: (§2) The monomeric molecular probes ending with a N-terminus free DOTAMA chelator and with a C-terminus free carboxylic group were custom synthesised by Peptide Synthetics Ltd (Hampshire, United Kingdom) with a purity of >95%. The DOTAMA collagen-binding peptides were complexed in house with Gd(III) to obtain a contrast agent for MR molecular imaging, or with Eu(III) for in vitro binding studies using Time-Resolved Fluorescence (TRF) plate assays, or ^68Ga(III) for PET biodistribution studies. Metal complexation of the DOTAMA derivatives was performed in-house, by reacting the desired lanthanide ion (Gd^3+, Eu^3+) in a 1.05:1 L:M molar ratio at pH 5.5 and room temperature. Reaction evolution was confirmed by xylenol orange method. Upon reaction competition, the pH was adjusted to 7 and the samples were lyophilised and stored at −20 °C. The final concentration of the Gd(III) and Eu(III) complex solutions was assessed by ICP-OES and/or BMS. For tissue co-localisation experiments, the CBP1 was also synthesised in the fluorescently labelled form by conjugating a Rhodamine B derivative to its N-terminus (compound Rh-CBP1).

[6] = molecular target: T4, COL1 fibres (Mus musculus, UniProt P11087+Q01149); assay: Tissue co-localisation of fluorescent probe with COL1 fibres; design: species or system mice; conditions: aortic tissue, murine model of vascular remodelling
T4 construct: from tissue; host or cells: sections of the remodelled aortic wall of ApoE-/- mice
T4 sequence (P11087 152-1207 limits assumed): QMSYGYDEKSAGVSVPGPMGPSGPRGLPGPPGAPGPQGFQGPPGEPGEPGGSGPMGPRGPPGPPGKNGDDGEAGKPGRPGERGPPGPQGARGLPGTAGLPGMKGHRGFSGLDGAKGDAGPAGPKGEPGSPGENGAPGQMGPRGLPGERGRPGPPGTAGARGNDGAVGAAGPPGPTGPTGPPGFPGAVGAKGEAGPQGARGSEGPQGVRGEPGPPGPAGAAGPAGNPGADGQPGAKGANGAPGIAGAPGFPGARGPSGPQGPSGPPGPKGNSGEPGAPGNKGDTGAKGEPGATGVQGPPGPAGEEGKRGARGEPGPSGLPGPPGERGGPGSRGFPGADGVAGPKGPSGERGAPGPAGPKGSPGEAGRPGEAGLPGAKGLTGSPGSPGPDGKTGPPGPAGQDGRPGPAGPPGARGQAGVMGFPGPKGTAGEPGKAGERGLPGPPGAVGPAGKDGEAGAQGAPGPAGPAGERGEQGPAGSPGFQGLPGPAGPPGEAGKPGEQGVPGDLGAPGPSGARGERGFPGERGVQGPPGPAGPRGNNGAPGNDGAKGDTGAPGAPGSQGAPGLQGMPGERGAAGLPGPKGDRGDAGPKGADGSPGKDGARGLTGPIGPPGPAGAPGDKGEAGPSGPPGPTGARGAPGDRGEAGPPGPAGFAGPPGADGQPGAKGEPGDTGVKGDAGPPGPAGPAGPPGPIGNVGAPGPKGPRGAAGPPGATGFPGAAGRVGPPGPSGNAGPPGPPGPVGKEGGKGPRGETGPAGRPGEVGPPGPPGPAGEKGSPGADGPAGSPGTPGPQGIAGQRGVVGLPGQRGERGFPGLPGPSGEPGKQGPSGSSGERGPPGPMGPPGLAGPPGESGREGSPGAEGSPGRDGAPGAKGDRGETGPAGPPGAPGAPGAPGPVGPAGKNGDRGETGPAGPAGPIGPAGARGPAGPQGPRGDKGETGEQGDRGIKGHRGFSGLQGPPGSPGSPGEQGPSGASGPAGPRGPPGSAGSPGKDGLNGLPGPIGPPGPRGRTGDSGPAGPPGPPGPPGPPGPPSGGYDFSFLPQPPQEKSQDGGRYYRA
T4 sequence (Q01149 86-1125 limits assumed): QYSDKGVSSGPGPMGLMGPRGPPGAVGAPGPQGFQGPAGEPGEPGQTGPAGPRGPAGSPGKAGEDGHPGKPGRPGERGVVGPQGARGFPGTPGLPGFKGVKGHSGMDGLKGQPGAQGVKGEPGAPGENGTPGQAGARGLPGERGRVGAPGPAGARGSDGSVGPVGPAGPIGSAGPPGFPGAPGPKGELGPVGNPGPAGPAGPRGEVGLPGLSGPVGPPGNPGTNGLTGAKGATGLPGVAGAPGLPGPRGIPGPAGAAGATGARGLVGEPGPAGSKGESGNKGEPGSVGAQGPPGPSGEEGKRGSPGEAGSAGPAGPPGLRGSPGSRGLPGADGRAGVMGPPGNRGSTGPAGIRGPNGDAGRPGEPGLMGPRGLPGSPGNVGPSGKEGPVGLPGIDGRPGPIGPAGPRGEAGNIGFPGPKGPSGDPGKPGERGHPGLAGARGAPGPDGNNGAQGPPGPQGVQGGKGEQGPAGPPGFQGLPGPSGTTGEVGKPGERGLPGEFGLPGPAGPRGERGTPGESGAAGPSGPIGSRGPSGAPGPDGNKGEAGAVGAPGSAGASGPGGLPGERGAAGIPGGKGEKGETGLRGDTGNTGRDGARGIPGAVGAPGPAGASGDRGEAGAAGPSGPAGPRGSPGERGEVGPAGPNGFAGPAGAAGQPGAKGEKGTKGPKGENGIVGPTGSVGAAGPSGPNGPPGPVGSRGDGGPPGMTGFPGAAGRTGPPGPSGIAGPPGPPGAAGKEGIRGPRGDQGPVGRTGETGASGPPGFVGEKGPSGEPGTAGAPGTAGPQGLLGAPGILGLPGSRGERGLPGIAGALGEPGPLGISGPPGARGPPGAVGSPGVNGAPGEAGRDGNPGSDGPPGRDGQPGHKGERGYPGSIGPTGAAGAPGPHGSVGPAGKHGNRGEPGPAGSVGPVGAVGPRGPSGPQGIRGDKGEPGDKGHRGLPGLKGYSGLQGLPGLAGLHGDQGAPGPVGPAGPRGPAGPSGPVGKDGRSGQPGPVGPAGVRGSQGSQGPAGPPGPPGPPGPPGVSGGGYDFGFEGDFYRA
Text: as §2

Compound: O=C([O-])CN1CCN(CC(=O)[O-])CCN([C@H](CO)[C@H](O)CO)CCN(CC(=O)[O-])CC1.[Gd+3] (racemic) [Gadovist]
- signal enhancement in the infarct, both timepoints after MI (in words) [1]: No enhancement
- r1 in PBS ([2]; column PBS): 3.7 mM⁻¹ s⁻¹
- r1 (column HSA 0.6 mM) ([2]; in non-sterile bovine plasma (albumin 0.64 to 0.82 mmol/L)): 6.1* mM^−1 s^−1

Compound: DARKSEVQK [CBP1]
- binding affinity towards COL3 compared with COL1 (in words) [3]: higher binding affinity towards COL3 than COL1
- effect on COL3-induced platelet aggregation (in words) [4]: inhibit

Compound: DARKSEVQK [rhodamine-labelled CBP1 analogue probe, CBP1 in fluorescently labelled form, Rhodamine B derivative conjugated to its N-terminus]
- co-localisation with COL3-rich fibres within the remodelled aortic wall (in words) [5]: co-localisation of the fluorescent probe with COL3-rich fibres
- co-localisation to COL1 fibres (in words) [6]: no co-localisation
